We go through 1 molecule from patent publication US12673065B2, “Anti-inflammatory composition and method of treatment” (KUWAIT UNIVERSITY, priority 2020, dated 2026).

The test system of assay [1] is HDM-challenged BALB/c mice. The assay can be described thus: HDM-induced airway hyperresponsiveness to methacholine (lung resistance). The format is in vivo. Conditions: dexamethasone 3 mg/kg; 50 mg/ml of methacholine; HDM/vehicle 7.9±0.5. The method, then:
Airway responsiveness was measured 24 h after the last HDM or PBS challenge, using a separate set of animals using the Buxco FinePointe series RC site (DSI, Wilmington, NC) as described previously in the literature. Briefly, mice were anesthetized with an intraperitoneal injection of ketamine/xylazine ([…]) cocktail and tracheotomized with a steel 18-gauge cannula. Mice were then mechanically ventilated at a rate of 150 breaths/minute and a tidal volume of 0.15 ml using a computerized small animal ventilator (FinePointe site). Following a 5 min period of stabilization and administration of PBS, airway resistance was measured by exposing mice to aerosolized methacholine (6.25-50.0 mg/ml, 5 μl per delivery) delivered by an aerogen nebulizer and reported as total lung resistance (RL) (cm H2O per ml/sec).
All numerical values were expressed as means±SEM. Total cell counts represent the number of cells/ml of BAL fluid. Differential cell counts represent the absolute number of each cell type/ml of BAL fluid. Absolute RL values were computed and were used as an index of airway responsiveness. For the histopathological assessment, a semi-quantitative 5-level lung pathology score was used to grade the degree of inflammation in each microscopic field at 20×. All data were initially assessed for normality. […]

The test system of assay [2] is HDM-challenged BALB/c mice. The assay can be described thus: HDM-induced total and differential cell influx in BAL fluid. The format is in vivo. To be noted: synergy study, OBE 30 mg/kg i.p., dexamethasone 0.5 mg/kg i.p., alone or combined, mean±SEM. The method, then:
(§1) Male BALB/c mice (6-8 weeks old, average weight 25 g) were used in this study. All studies involving animals were in accordance with the ARRIVE guidelines for reporting experiments involving animals. All experimental protocols were approved by the Animal Welfare and Use of Laboratory Animals Committee in the Health Sciences Center, Kuwait University and were carried out in accordance with the EU Directive 2010/63/EU for animal experiments and the National Institutes of Health guide for the care and use of Laboratory animals (NIH Publications No. 8023, revised 1978). Animals were maintained under temperature-controlled conditions with an artificial 12-hour light/dark cycle and were allowed standard chow and water ad libitum.
(§2) Seven treatment groups (A-G, 9-15 animals per group) were established to determine whether OBE, if given prophylactically, inhibits the HDM-induced asthma phenotype. […]
(§3) Twenty-four hours after the last intranasal challenge, half of the animals were sacrificed with an overdose of halothane, bronchoalveolar lavage (BAL) was performed to obtain BAL fluid, and then the lungs were excised in preparation for histology, Western Blot (WB) and immunofluorescence (IF) studies. […] In the other half of the animals, airway responsiveness was measured.

The test system of assay [3] is pERK1/2 (Thr202/Tyr204). The assay can be described thus: Immunofluorescence of lung sections, phosphorylation of ERK1/2. The format is in vivo, mice. Conditions: synergy study; OBE 30 mg/kg, dexamethasone 0.5 mg/kg, alone or combined; HDM 319.0±10.4. The procedure:
Lung tissues were processed as described above. Immunofluorescence was performed as previously described in the literature. In short, lung sections were incubated in a blocking solution (5% bovine serum albumin (BSA)+0.3% Triton X-100 in PBS) for 1 hour, and were subsequently incubated overnight at 4° C. with primary antibodies [p-EGFR (Tyr1068) (Rabbit; Cat. No. 3777S), pAKT (Ser 473) (Rabbit; Cat. No. 9271L) and pERK1/2 (Thr202/Tyr204) (Rabbit; Cat. No. 9101L) (1:25-1:800 dilution) or only 1% BSA (for negative control); Cell Signaling, USA], diluted in 1% blocking solution. Twenty-four hours later, the sections were washed and incubated with secondary antibody conjugated to Alexa Fluor 555 (Goat anti rabbit SFX kit; Life Technologies, USA, 1:400 dilution) for 2 hours at room temperature in the dark. Following several washes in PBS, the sections were stained with 4′,6-diamidino-2-phenylindole and mounted. Images were then captured on a ZEISS LSM 700 confocal microscope, and fluorescence intensity was estimated in defined fields using an Image J software package. […]
All numerical values were expressed as means±SEM. […] For the histopathological assessment, a semi-quantitative 5-level lung pathology score was used to grade the degree of inflammation in each microscopic field at 20×. All data were initially assessed for normality. […]

For assay [4], the system named is HDM-challenged BALB/c mice. Description: Lung histology scoring (H&E and PAS) after HDM challenge. Conditions: synergy study, OBE 30 mg/kg, dexamethasone 0.5 mg/kg, alone or combined, score 1-5. Type of assay: in vivo. The procedure:
as §1, §2, §3

As to `C[C@@H]1C[C@H]2[C@@H]3CCC4=CC(=O)C=C[C@]4(C)[C@@]3(F)[C@@H](O)C[C@]2(C)[C@@]1(O)C(=O)CO` [dexamethasone], in assay [1], the “lung resistance (RL)” value was 5.2±0.8 cm H2O per ml/sec. The “eosinophils in BAL fluid” value in assay [2] (HDM/vehicle 3.7±0.3) is 1.3±0.1 ×10^5. The “total cell count in BAL fluid” value in assay [2] (HDM/vehicle 6.4±0.5) is on record as 4.3±0.2 ×10^5. Further, the “HDM-induced phosphorylation of ERK1/2 (pERK1/2 levels)” value in assay [3] was determined as 264.8±4.9%. Besides, in assay [4] (HDM 4.2±0.2), the mucous intensity score is 3.0±0.2. In addition, the cellular infiltration score in assay [4] (HDM 4.5±0.2) is given as 3.1±0.3.
